# Measured values from ChEMBL document CHEMBL1141818, “Annonaceous acetogenins: recent progress” (J Nat Prod, 1999).
# Legend:
# KB = assay: Cytotoxicity against human KB cells; type: functional, cell-based; conditions: for IC50: Homo sapiens, KB
# Blattella germanica [1] = assay: Ratio of LT50 for Blattella germanica Muncie fifth instars to LT50 for Blattella germanica Jwax fifth instars; type: functional
# Blattella germanica [2] = assay: Ratio of LT50 for Blattella germanica Muncie second instars to LT50 for Blattella germanica Jwax second instars; type: functional
# HCT-8 = assay: Cytotoxicity against human HCT8 cells; type: functional, cell-based
# MCF7 = assay: Cytotoxicity against human MCF7 cells; type: functional; conditions: for EC50: Homo sapiens, MCF7, read-out: ED50 (the source's name)
# MIA PaCa-2 = assay: Cytotoxicity against human MIA PaCa2 cells; type: functional; conditions: for EC50: Homo sapiens, MIA PaCa-2, read-out: ED50 (the source's name)
# PC-3 = assay: Cytotoxicity against human PC-3 cells; type: functional; conditions: for EC50: Homo sapiens, PC-3, read-out: ED50 (the source's name)
# HT-29 = assay: Cytotoxicity against human HT-29 cells; type: functional; conditions: for EC50: Homo sapiens, HT-29, read-out: ED50 (the source's name)
# A498 = assay: Cytotoxicity against human A-498 cells; type: functional; conditions: Homo sapiens, A498; read-out: ED50 (the source's name)
# [3] = Toxicity in brine shrimp; type: organism-based; conditions: artemia, in vivo
# A549 = assay: Cytotoxicity against human A549 cells; type: functional; conditions: Homo sapiens, A549; read-out: ED50 (the source's name)
smiles,measurement,setting,value
CCCCCCC(O)CCC[C@H](O)[C@@H]1CC[C@@H]([C@@H]2CC[C@H]([C@H](O)CCCCCCCCCCCCC3=C[C@H](C)OC3=O)O2)O1 (stereo partly drawn) [CAROLIN A],ED50,KB,1 ×10⁻⁷ ug/ml
CC1(C)CNC(=NN=C(/C=C/c2ccc(C(F)(F)F)cc2)/C=C/c2ccc(C(F)(F)F)cc2)NC1 [HYDRAMETHYLNON],Ratio,Blattella germanica [1],0.6
same,Ratio,Blattella germanica [2],1
CNC(=O)Oc1cccc2c1OC(C)(C)O2 [BENDIOCARB],Ratio,Blattella germanica [1],0.9
same,Ratio,Blattella germanica [2],2.5
CNC(=O)Oc1ccccc1OC(C)C [PROPOXUR],Ratio,Blattella germanica [1],1.7
same,Ratio,Blattella germanica [2],3.8
CCCCCCCCCCCC[C@@H](O)[C@H]1CC[C@H]([C@H](O)CCCCC(O)CCCCC[C@@H](O)CC2=C[C@@](C)(O)OC2=O)O1 (stereo partly drawn) [GONIODONIN],IC50,HCT-8,< 10 µg/mL
CCCCCCCCCCCC[C@H](O)[C@@H]1CC[C@H]([C@H](O)CCCCC(O)CCCCC[C@@H](O)CC2=C[C@@](C)(O)OC2=O)O1 (stereo partly drawn),IC50,HCT-8,< 10 µg/mL
CCCCCCCCCCC(O)C1CCC(C2CCC(C(O)CCCCCCCC[C@H](O)CC3=C[C@@H](C)OC3=O)O2)O1 (stereo partly drawn) [ASIMICIN],Ratio,Blattella germanica [1],1.6
same,Ratio,Blattella germanica [2],0.9
CCCCCCCCCC[C@@H](O)[C@@H]1CC[C@H]([C@H](O)CC[C@H](O)[C@@H]2CC[C@@H](CCCCCCC[C@@H](O)CC3=C[C@H](C)OC3=O)O2)O1 [SYLVATICIN],Ratio,Blattella germanica [1],3.9
same,Ratio,Blattella germanica [2],1.7
CCCCCCCCCCCCCC[C@@H](O)[C@H](O)CC[C@H](O)[C@@H]1CC[C@@H](CCCCC[C@@H](O)CC2=C[C@H](C)OC2=O)O1 [GIGANTETROCIN A],Ratio,Blattella germanica [1],1.5
same,Ratio,Blattella germanica [2],0.9
CCCCCCCCCCCCCC[C@H](O)[C@@H](O)CC[C@H](O)[C@@H]1CC[C@@H](CCCCC[C@@H](O)CC2=C[C@@](C)(O)OC2O)O1 (stereo partly drawn) [DONNAIENIN B],IC50,KB,10 µg/mL
CCCCCC(O)CCCC[C@H](O)[C@@H]1CC[C@@H]([C@@H]2CC[C@H]([C@H](O)CCCCCCCCCCCCC3=C[C@H](C)OC3=O)O2)O1 (stereo partly drawn) [CAROLIN B],ED50,KB,5 ×10⁻⁶ ug/ml
CCCCCCCCCCCC[C@@H](O)[C@H]1CC[C@H]([C@H](O)CCCC[C@H](O)CCCCCCC[C@@H](O)CC2=C[C@H](C)OC2=O)O1 [ANNOGLACIN B],ED50,MCF7,6.2 ×10⁻⁴ ug/ml
same,ED50,MIA PaCa-2,1.2 ×10⁻⁶ ug/ml
same,ED50,PC-3,8.4 ×10⁻⁴ ug/ml
same,EC50,HT-29,0.0053 µg/mL
same,EC50,A498,0.4 µg/mL
same,LC50,[3],0.17 µg/mL
same,EC50,A549,0.0028 µg/mL
CCCCCCCCCCCCCC[C@@H](O)[C@H]1CC[C@H]([C@H](O)CCCC[C@H](O)CCCCC[C@@H]2CC(CC(C)=O)C(=O)O2)O1 (mixture of isomers),ED50,MCF7,7.6 ×10⁻⁴ ug/ml
same,EC50,MIA PaCa-2,0.074 µg/mL
same,EC50,PC-3,0.057 µg/mL
same,ED50,HT-29,7.4 ×10⁻⁴ ug/ml
same,EC50,A498,0.12 µg/mL
same,LC50,[3],0.04 µg/mL
same,EC50,A549,0.014 µg/mL
CC1(C)C(C=C(Cl)Cl)C1C(=O)OC(C#N)c1cccc(Oc2ccccc2)c1 (stereo not drawn) [ALPHA-CYPERMETHRIN],Ratio,Blattella germanica [2],2
CCCCCCCCCCCC[C@@H](O)[C@H](O)CC[C@H](O)[C@@H]1CC[C@@H](C[C@H](O)CCCCC[C@@H](O)CC2=C[C@H](C)OC2=O)O1 [ANNOPENTOCIN A],EC50,MCF7,18 µg/mL
same,EC50,MIA PaCa-2,0.036 µg/mL
same,EC50,PC-3,1.1 µg/mL
same,EC50,HT-29,1.6 µg/mL
same,EC50,A498,0.61 µg/mL
same,LC50,[3],8.9 µg/mL
same,EC50,A549,0.17 µg/mL
CCCCCCCCCCCC[C@@H](O)[C@H]1CC[C@H]([C@H](O)CCCC(O)C(O)CCCCC[C@@H]2CC(CC(C)=O)C(=O)O2)O1 (stereo partly drawn),EC50,MCF7,0.61 µg/mL
same,EC50,MIA PaCa-2,< 0.01 µg/mL
same,EC50,PC-3,1.3 µg/mL
same,EC50,HT-29,< 0.01 µg/mL
same,EC50,A498,0.12 µg/mL
same,LC50,[3],4.8 µg/mL
same,EC50,A549,< 0.01 µg/mL
CCCCCCCCCCCC[C@@H](O)[C@H]1CC[C@H]([C@H](O)CCCCCCCCCC[C@@H](O)CC2=C[C@@](C)(O)OC2=O)O1 [DONNAIENIN A],IC50,KB,< 1 µg/mL
same,IC50,HCT-8,< 10 µg/mL
